What was measured:
NPP4 = target: T1, NPP4 (Homo sapiens, UniProt Q9Y6X5); assay: NPP4 assay with AP4A as substrate, luciferin-luciferase detection; format: biochemical; conditions: for inhibition at 10 µM: 10 µM test compound; for Ki: 20 µM AP4A, read-out: Ki ± SEM
T1 construct: 1.4 µg of NPP4 (soluble form expressed in insect cells and purified); made in house; host or cells: Sf9 insect cells
T1 sequence (Q9Y6X5 16-407 limits assumed): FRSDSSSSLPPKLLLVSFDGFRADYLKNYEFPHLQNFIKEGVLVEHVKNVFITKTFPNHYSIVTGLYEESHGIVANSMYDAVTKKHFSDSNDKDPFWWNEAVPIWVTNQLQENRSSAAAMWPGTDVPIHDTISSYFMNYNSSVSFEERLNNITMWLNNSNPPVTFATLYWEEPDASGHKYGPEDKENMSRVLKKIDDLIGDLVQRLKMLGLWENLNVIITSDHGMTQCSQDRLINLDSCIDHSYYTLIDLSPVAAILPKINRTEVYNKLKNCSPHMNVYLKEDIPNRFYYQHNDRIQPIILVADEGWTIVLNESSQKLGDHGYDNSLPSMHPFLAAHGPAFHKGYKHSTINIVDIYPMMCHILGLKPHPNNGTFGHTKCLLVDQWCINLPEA
Procedure: Soluble NPP4 was expressed in Sf9 insect cells as recently described in detail ([Lopez et al., 2020]). Diadenosine tetraphosphate (AP4A) was employed as a substrate which is cleaved by NPP4 to ATP and AMP. The reaction product ATP was quantified by luciferin-luciferase reaction ([Lopez et al., 2020]). A mixture of 1.4 µg of NPP4 (soluble form expressed in insect cells and purified) ([Lopez et al., 2020]), 10 µM of test compound, 2 % DMSO, and 20 µM of AP4A as a substrate were incubated for 60 min at 37°C with gentle shaking. The reaction was terminated by heating at 90°C for 5 min, and after cooling down on ice, 50 µl of D-luciferin dissolved in buffer (300 mM Tris-HCl, 15 mM MgCl2, 100 ng D-luciferin, pH 7.8) and 50 µl of luciferase (50 ng dissolved in H2O) were added. The firefly luciferase reacts with D-luciferin in the presence of ATP produced by NPP4. The resulting luminescence was measured between 10–14 min at 560 nm using a BMG PheraStar FS plate reader (BMG Labtech GmbH, Ortenberg, Germany).

human CD73 = target: T2, human CD73 (Homo sapiens, UniProt P21589); assay: CD73 assay with [2,8-3H]AMP as radioactive substrate; format: biochemical; conditions: for Ki: soluble human CD73, 5.0 µM [2,8-3H]AMP, read-out: Ki ± SEM
T2 construct: the catalytic domains of the enzymes were amplified and sub-cloned into the expression vector pACGP67 A/B; 9xHis (C); made in house; host or cells: Sf9 insect cells (baculovirus, pACGP67 A/B)
T2 sequence (P21589 27-549 limits assumed): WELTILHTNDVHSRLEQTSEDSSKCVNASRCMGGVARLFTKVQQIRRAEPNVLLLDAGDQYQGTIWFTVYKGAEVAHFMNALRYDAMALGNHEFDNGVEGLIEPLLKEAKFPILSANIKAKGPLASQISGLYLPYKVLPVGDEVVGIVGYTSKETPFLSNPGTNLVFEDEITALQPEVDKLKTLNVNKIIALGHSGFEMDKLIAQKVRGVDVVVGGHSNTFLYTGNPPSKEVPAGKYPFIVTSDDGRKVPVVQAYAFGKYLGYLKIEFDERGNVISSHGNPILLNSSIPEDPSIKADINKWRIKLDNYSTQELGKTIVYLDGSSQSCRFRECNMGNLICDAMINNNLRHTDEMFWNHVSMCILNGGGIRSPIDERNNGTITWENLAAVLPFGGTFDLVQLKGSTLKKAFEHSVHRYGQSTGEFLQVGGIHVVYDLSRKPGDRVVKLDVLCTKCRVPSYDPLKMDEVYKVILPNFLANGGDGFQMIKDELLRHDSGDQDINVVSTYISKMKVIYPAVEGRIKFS
Description: The cDNAs of the human enzymes NPP1, NPP3, NPP5, CD38 and CD73 (Genbank accession no. NM_006258, NM_005021, NM_021572, NM_ 001775, and NM_002526, respectively) were obtained from Origene (Rockville, USA). Soluble enzymes were produced as previously reported with some modifications ([Lee et al., 2015]; [Junker et al., 2019]). Briefly, the catalytic domains of the enzymes were amplified and sub-cloned into the expression vector pACGP67 A/B modified with the addition of 9 x histidine tag (His-tag) at the C-terminus (except for NPP1). The plasmids were transfected in Sf9 insect cells using Cellfectin™ II Reagent (Thermo Fisher Scientific, MA, USA) and ProEasy™ baculovirus linearized DNA (Cat.#A10S, AB Vector, LLC). Protein expression was conducted for 48 h at 27°C. The signal peptide sequence of the expression vector shuttled the proteins into the supernatant. The supernatant medium was collected, and the enzymes were purified using HisPur™ Ni^2+-NTA spin columns according to the manufacturer’s protocol. The protein concentration was determined by the method previously described by [Lowry et al. (1951)].
The assay was performed as previously described ([Freundlieb et al., 2014]). Briefly, it contained with 0.09 µg/ml of soluble human CD73 recombinantly expressed in Sf9 insect cells as described ([Junker et al., 2019]), the respective test compound, and 5.0 µM [2,8-^3H]AMP (specific activity 7.4 x 108 Bq/mmol, 20 mCi/mmol) as radioactive substrate in assay buffer consisting of 25 mM Tris buffer, 140 mM NaCl, 25 mM NaH2PO4 pH 7.4. The enzymatic reaction was performed for 25 min at 37°C in a shaking water bath. Then, 500 µl of cold precipitation buffer (100 mM LaCl3, 100 mM sodium acetate, pH 4.0) were added to precipitate free phosphate and unconverted [2,8-^3H]AMP. After 30 min on ice, filtration through GF/B glass fiber filters using a cell harvester was used to separate AMP from adenosine. After washing each reaction vial three times with 400 µl of cold (4°C) demineralized water, aliquots of the filtrate were taken, and 5 ml of scintillation cocktail (ULTIMA Gold XR9) was added. The amount of formed adenosine was quantified by liquid scintillation counting (TRICARB 2900 TR, Packard/PerkinElmer).

fold higher potency at CD73 compared to CD39 (human CD73; CD73 Ki vs CD39 Ki) [fold]	SMILES	inhibition at 10 µM (NPP4) [%]	Ki (NPP4) [nM]	Ki (human CD73) [nM]
8	CCCCNc1nc2c(NC)ncnc2n1[C@@H]1O[C@H](COP(=O)(O)OP(=O)(O)C(Br)(Br)P(=O)(O)O)[C@@H](O)[C@H]1O [Compound 33, (Dibromo((((((2R,3S,4R,5R)-5-(8-(butylamino)-6-(methylamino)-9H-purin-9-yl)-3,4-dihydroxy-tetrahydrofuran-2-yl)methoxy)(hydroxy)phosphoryl)oxy)-(hydroxy)phosphoryl)methyl)-phosphonic Acid]	4	> 10000	185 ± 74
–	CCCCSc1nc2c(N)ncnc2n1[C@@H]1O[C@H](COP(=O)(O)OP(=O)(O)C(Br)(Br)P(=O)(O)O)[C@@H](O)[C@H]1O [Compound 31, (((((((2R,3S,4R,5R)-5-(6-Amino-8-(butylthio)-9H-purin-9-yl)-3,4-dihydroxytetrahydrofuran-2-yl)methoxy)(hydroxy)-phosphoryl)oxy)(hydroxy)phosphoryl)dibromomethyl)-phosphonic Acid]	2	> 10000	831 ± 274
–	CCN(CC)c1ncnc2c1ncn2[C@@H]1O[C@H](COP(=O)(O)OP(=O)(O)C(Br)(Br)P(=O)(O)O)[C@@H](O)[C@H]1O [ARL67156, (Dibromo((((((2R,3S,4R,5R)-5-(6-(diethylamino)-9H-purin-9-yl)-3,4-dihydroxytetrahydrofuran-2-yl)methoxy)-(hydroxy)-phosphoryl)oxy)(hydroxy)phosphoryl)methyl)-phosphonic Acid, reference compound]	-1	> 10000	451 ± 121
